The numbers were not newly measured in PMC4421842 (Nature Communications, 2015), which cites them from elsewhere.

SMILES strings stand for the structures.

In data set [1] the test system is K. pneuomoniae, S. aureus or Mycobacterium tuberculosis. On the set-up: method as in PMID 24545057. The following applies: cited from earlier work.
On the set-up of data set [2]: method as in PMID 24545057. The settings on record: dosed subcutaneously, orally or by intraperitoneal injection; cited from earlier work.

For `Cc1cc(=O)n2c3c(c4c(cc13)c(CO)cc(=O)n4C)OC2` [NM, Nybomycin], the “activity in mice infected with various bacteria” value in data set [1] is on record as “no activity”. The tolerability in mice result in data set [2] is given as “well tolerated”.
